# Key:
# [1] = Antiproliferative activity against human L02 cells assessed as inhibition of cell proliferation at 1 uM incubated for 72 hrs by SRB assay relative to control; type: toxicity, cell-based
# MIA PaCa-2 [2] = test: Antiproliferative activity against human MIA PaCa-2 cells assessed as inhibition of cell proliferation at 1 uM incubated for 72 hrs by SRB assay relative to control; type: functional
# CFPAC-1 [3] = test: Antiproliferative activity against human CFPAC-1 cells assessed as inhibition of cell proliferation at 1 uM incubated for 72 hrs by SRB assay relative to control; type: functional
# PaTu 8988t [4] = test: Antiproliferative activity against human PaTu 8988t cells assessed as inhibition of cell proliferation at 1 uM incubated for 72 hrs by SRB assay relative to control; type: functional
# Panc02 [5] = test: Antiproliferative activity against mouse Panc02 cells assessed as inhibition of cell proliferation at 1 uM incubated for 72 hrs by SRB assay relative to control; type: functional
# [6] = Antiproliferative activity against human L02 cells assessed as inhibition of cell proliferation incubated for 72 hrs by SRB assay; type: toxicity, cell-based
# MIA PaCa-2 [7] = test: Antiproliferative activity against human MIA PaCa-2 cells assessed as inhibition of cell proliferation incubated for 72 hrs by SRB assay; type: functional, cell-based; details: MIA PaCa-2, 72 h
# CFPAC-1 [8] = test: Antiproliferative activity against human CFPAC-1 cells assessed as inhibition of cell proliferation incubated for 72 hrs by SRB assay; type: functional, cell-based; details: CFPAC-1, 72 h
# PaTu 8988t [9] = test: Antiproliferative activity against human PaTu 8988t cells assessed as inhibition of cell proliferation incubated for 72 hrs by SRB assay; type: functional, cell-based
# Panc02 [10] = test: Antiproliferative activity against mouse Panc02 cells assessed as inhibition of cell proliferation incubated for 72 hrs by SRB assay; type: functional, cell-based; details: Panc02, 72 h
# [11] = Metabolic stability in human liver microsome assessed as half life; type: ADME; details: liver microsomes
# [12] = Metabolic stability in human liver microsome assessed as intrinsic clearance; type: ADME; details: liver microsomes, read-out: CLH
# [13] = Metabolic stability in human liver microsome assessed as hepatic clearance; type: ADME; details: microsomes
# [14] = Metabolic stability in mouse liver microsome assessed as half life; type: ADME; details: liver microsomes
# [15] = Metabolic stability in mouse liver microsome assessed as intrinsic clearance; type: ADME; details: liver microsomes, read-out: CLH
# [16] = Metabolic stability in mouse liver microsome assessed as hepatic clearance; type: ADME; details: microsomes
# [17] = Aqueous solubility of the compound at 1 to 2 mg measured after 24 hrs by HPLC-MS analysis; type: physicochemical; details: aqueous (not further specified), dose 1-2 mg
# CFPAC-1 [18] = test: Induction of cell cycle arrest in human CFPAC-1 cells assessed as accumulation at G1 phase at 10 nM incubated for 24 hrs by flow cytometry (reference value: 57.6 %); type: functional
# CFPAC-1 [19] = test: Induction of cell cycle arrest in human CFPAC-1 cells assessed as accumulation at S phase at 10 nM incubated for 24 hrs by flow cytometry (reference value: 28.5 %); type: functional
# CFPAC-1 [20] = test: Induction of cell cycle arrest in human CFPAC-1 cells assessed as accumulation at G2 phase at 10 nM incubated for 24 hrs by flow cytometry (reference value: 11 %); type: functional
# CFPAC-1 [21] = test: Induction of cell cycle arrest in human CFPAC-1 cells assessed as accumulation at G1 phase at 100 nM incubated for 24 hrs by flow cytometry (reference value: 57.6 %); type: functional
# CFPAC-1 [22] = test: Induction of cell cycle arrest in human CFPAC-1 cells assessed as accumulation at S phase at 100 nM incubated for 24 hrs by flow cytometry (reference value: 28.5 %); type: functional
# CFPAC-1 [23] = test: Induction of cell cycle arrest in human CFPAC-1 cells assessed as accumulation at G2 phase at 100 nM incubated for 24 hrs by flow cytometry (reference value: 11 %); type: functional
# CFPAC-1 [24] = test: Induction of cell cycle arrest in human CFPAC-1 cells assessed as accumulation at G1 phase at 1000 nM incubated for 24 hrs by flow cytometry (reference value: 57.6 %); type: functional
# CFPAC-1 [25] = test: Induction of cell cycle arrest in human CFPAC-1 cells assessed as accumulation at S phase at 1000 nM incubated for 24 hrs by flow cytometry (reference value: 28.5 %); type: functional
# CFPAC-1 [26] = test: Induction of cell cycle arrest in human CFPAC-1 cells assessed as accumulation at G2 phase at 1000 nM incubated for 24 hrs by flow cytometry (reference value: 11 %); type: functional
# CFPAC-1 [27] = test: Induction of apoptosis in human CFPAC-1 cells assessed as viable cells at 1 uM incubated for 24 hrs by annexin V-FITC/PI staining based flow cytometry (reference value: 92.9 %); type: functional; details: read-out: Activity
# CFPAC-1 [28] = test: Induction of apoptosis in human CFPAC-1 cells assessed as early apoptotic cells at 1 uM incubated for 24 hrs by annexin V-FITC/PI staining based flow cytometry (reference value: 2.93 %); type: functional
# CFPAC-1 [29] = test: Induction of apoptosis in human CFPAC-1 cells assessed as late apoptotic cells at 1 uM incubated for 24 hrs by annexin V-FITC/PI staining based flow cytometry (reference value: 3.88 %); type: functional
# CFPAC-1 [30] = test: Induction of apoptosis in human CFPAC-1 cells assessed as necrotic cells at 1 uM incubated for 24 hrs by annexin V-FITC/PI staining based flow cytometry (reference value: 0.27 %); type: functional
# CFPAC-1 [31] = test: Induction of apoptosis in human CFPAC-1 cells assessed as viable cells at 10 uM incubated for 24 hrs by annexin V-FITC/PI staining based flow cytometry (reference value: 92.9 %); type: functional; details: read-out: Activity
# CFPAC-1 [32] = test: Induction of apoptosis in human CFPAC-1 cells assessed as early apoptotic cells at 10 uM incubated for 24 hrs by annexin V-FITC/PI staining based flow cytometry (reference value: 2.93 %); type: functional
# CFPAC-1 [33] = test: Induction of apoptosis in human CFPAC-1 cells assessed as late apoptotic cells at 10 uM incubated for 24 hrs by annexin V-FITC/PI staining based flow cytometry (reference value: 3.88 %); type: functional
# CFPAC-1 [34] = test: Induction of apoptosis in human CFPAC-1 cells assessed as necrotic cells at 10 uM incubated for 24 hrs by annexin V-FITC/PI staining based flow cytometry (reference value: 0.27 %); type: functional
# Panc02 [35] = test: Antitumor activity against […] Panc02 cells xenografted in C57BL/6 mouse assessed as tumor growth inhibition at 10 mg/kg, ip administered every two days for 20 days by electronic caliper method relative to control; type: functional; details: Panc02, 480 h, time 20 day, read-out: TGI
# [36] = Toxicity in C57BL/6 mouse xenografted with […] cells assessed as drug tolerance at 10 mg/kg, ip administered every two days for 20 days; type: organism-based; details: in vivo, 480 h, time 20 day
# [37] = Toxicity in C57BL/6 mouse xenografted with […] cells assessed as body weight loss at 10 mg/kg, ip administered every two days for 20 days; type: organism-based; details: in vivo, 480 h, time 20 day
smiles,measurement,setting,value
COc1cc2c(N)c3c(c(-c4ccc5c(c4)OCO5)c2cc1OC)C(=O)OC3,"inhibition at 72 h, 1 µM",[1],34.4%
same,inhibition at 1 µM,MIA PaCa-2 [2],91%
same,inhibition at 1 µM,CFPAC-1 [3],78.6%
same,inhibition at 1 µM,PaTu 8988t [4],89.9%
same,inhibition at 1 µM,Panc02 [5],90%
same,IC50 at 72 h,[6],487 nM
same,IC50,MIA PaCa-2 [7],11 nM
same,IC50,CFPAC-1 [8],3 nM
same,IC50,PaTu 8988t [9],37 nM
same,IC50,Panc02 [10],19 nM
same,half-life,[11],88.7 min
same,microsomal CLint,[12],15.6 µL/min/mg
same,CLH,[13],9.6 mL/min/kg
same,half-life,[14],28.5 min
same,microsomal CLint,[15],48.7 µL/min/mg
same,CLH,[16],61.3 mL/min/kg
same,solubility at 24 h,[17],0.028 µg/mL
same,Activity,CFPAC-1 [18],74.3%
same,Activity,CFPAC-1 [19],15.6%
same,Activity,CFPAC-1 [20],8%
same,Activity,CFPAC-1 [21],80.9%
same,Activity,CFPAC-1 [22],12.7%
same,Activity,CFPAC-1 [23],3.61%
same,Activity,CFPAC-1 [24],83.8%
same,Activity,CFPAC-1 [25],10.3%
same,Activity,CFPAC-1 [26],3.66%
same,viability at 1 µM,CFPAC-1 [27],84.8%
same,Activity,CFPAC-1 [28],2.91%
same,Activity,CFPAC-1 [29],11.9%
same,Activity,CFPAC-1 [30],0.4%
same,viability at 10 µM,CFPAC-1 [31],86.1%
same,Activity,CFPAC-1 [32],2.21%
same,Activity,CFPAC-1 [33],11%
same,Activity,CFPAC-1 [34],0.69%
same,inhibition in vivo at 10 mg/kg,Panc02 [35],44.7%
same,Activity,[36],Non-Toxic
same,Activity,[37],Non-Toxic

# — ChEMBL document CHEMBL5352426, “Synthesis and anti-tumor activity of nitrogen-containing derivatives of the natural product diphyllin” (Eur J Med Chem, 2022)
